Experimental data from patent US11312727B1, “Macrocyclic flu endonuclease inhibitors” (Janssen BioPharma, Inc., priority 2018, dated 2022).

What was measured:
in vitro = conditions: human, CC50, uninfected A549 cells, CellTiter-Glo
[1] = test system: Influenza strain A549 A/WSN/33 (H1N1); experiment: microbe, parasite or virus in culture; assay type: cell-based; conditions: Influenza A virus, A549, 20 h, A549 cells, influenza A/WSN/33 (H1N1), 20 hours incubation; read-out: A549_A(H1N1) EC50

| SMILES | CC50 (in vitro) | EC50 [1] |
| --- | --- | --- |
| CC[C@@H]1/C=C/COc2cc(F)c(F)c3c2[C@H](c2ccccc2SC3)N2CN1C(=O)c1c(O)c(=O)ccn12 (single isomer, unassigned) [Compound 126AB, (9*R,17a*R,E)-9-ethyl-24,25-difluoro-12-hydroxy-2,6,9,17a-tetrahydro-3,4-(epiprop[1]en[1]yl[3]ylidene)-10,17-methanobenzo[6,7]thiepino[4,5-c]pyrido[1,2-f][1]oxa[5,6,9]triazacyclotridecine-11,13-dione] | > 0.2 µM | > 0.1 µM |
| CC[C@H]1/C=C/COc2cc(F)c(F)c3c2[C@@H](c2ccccc2SC3)N2CN1C(=O)c1c(O)c(=O)ccn12 (single isomer, unassigned) [Compound 126BA, (9*S,17a*S,E)-9-ethyl-24,25-difluoro-12-hydroxy-2,6,9,17a-tetrahydro-3,4-(epiprop[1]en[1]yl[3]ylidene)-10,17-methanobenzo[6,7]thiepino[4,5-c]pyrido[1,2-f][1]oxa[5,6,9]triazacyclotridecine-11,13-dione] | > 0.05 µM | 0.00023 µM |
| CC[C@@H]1/C=C\COc2cc(F)c(F)c3c2[C@@H](c2ccccc2SC3)N2CN1C(=O)c1c(O)c(=O)ccn12 (single isomer, unassigned) [Compound 126BB, (13*R,21a*S,Z)-13-ethyl-24,25-difluoro-16-hydroxy-6,10,13,21a-tetrahydro-7,8-(epiprop[1]en[1]yl[3]ylidene)-14,21-methanobenzo[6,7]thiepino[4,5-c]pyrido[1,2-f][1]oxa[5,6,9]triazacyclotridecine-15,17-dione] | > 0.2 µM | 0.001 µM |
| O=C1c2c(O)c(=O)ccn2N2CN1C[C@H]1C[C@@H]1COc1cc(F)c(F)c3c1[C@@H]2c1ccccc1SC3 (single isomer, unassigned) [Compound 127AA, (1a*S,11b*S,20a*S)-22,23-difluoro-17-hydroxy-1a,2,6,11b,20,20a-hexahydro-1H-5,4-(epiprop[1]en[1]yl[3]ylidene)-12,19-methanobenzo[6,7]thiepino[4,5-c]cyclopropa[k]pyrido[1,2-f][1]oxa[5,6,9]triazacyclotridecine-16,18-dione] | > 0.2 µM | 0.0015 µM |
| O=C1c2c(O)c(=O)ccn2N2CN1C[C@H]1C[C@@H]1COc1cc(F)c(F)c3c1[C@H]2c1ccccc1SC3 (single isomer, unassigned) [Compound 127BA, (1a*S,11b*R,20a*S)-22,23-difluoro-17-hydroxy-1a,2,6,11b,20,20a-hexahydro-1H-5,4-(epiprop[1]en[1]yl[3]ylidene)-12,19-methanobenzo[6,7]thiepino[4,5-c]cyclopropa[k]pyrido[1,2-f][1]oxa[5,6,9]triazacyclotridecine-16,18-dione] | > 0.2 µM | 0.0014 µM |
| CC(C)[C@@H]1/C=C/COc2c(ccc(F)c2F)[C@@H](c2ccccc2)N2CN1C(=O)c1c(O)c(=O)ccn12 (single isomer, unassigned) [Compound 128AA, (9*R,18*R,*E)-3,4-difluoro-12-hydroxy-9-isopropyl-18-phenyl-6,9-dihydro-18H-10,17-methanobenzo[b]pyrido[1,2-f][1]oxa[5,6,9]triazacyclotridecine-11,13-dione] | > 0.2 µM | > 0.1 µM |
| CC(C)[C@H]1/C=C/COc2c(ccc(F)c2F)[C@@H](c2ccccc2)N2CN1C(=O)c1c(O)c(=O)ccn12 (single isomer, unassigned) [Compound 128AB, (9*S,18*R,*E)-3,4-difluoro-12-hydroxy-9-isopropyl-18-phenyl-6,9-dihydro-18H-10,17-methanobenzo[b]pyrido[1,2-f][1]oxa[5,6,9]triazacyclotridecine-11,13-dione] | > 0.2 µM | 0.065 µM |
| CC(C)[C@@H]1/C=C/COc2c(ccc(F)c2F)[C@H](c2ccccc2)N2CN1C(=O)c1c(O)c(=O)ccn12 (single isomer, unassigned) [Compound 128BA, (9*R,18*S,*E)-3,4-difluoro-12-hydroxy-9-isopropyl-18-phenyl-6,9-dihydro-18H-10,17-methanobenzo[b]pyrido[1,2-f][1]oxa[5,6,9]triazacyclotridecine-11,13-dione] | > 0.2 µM | > 0.1 µM |
| CC(C)[C@H]1/C=C/COc2c(ccc(F)c2F)[C@H](c2ccccc2)N2CN1C(=O)c1c(O)c(=O)ccn12 (single isomer, unassigned) [Compound 128BB] | > 0.2 µM | 0.0039 µM |
| O=C1c2c(O)c(=O)ccn2N2CN1C/C=C\COc1c(cccc1C(F)(F)F)[C@H]2c1ccccc1 (single isomer, unassigned) [Compound 130A, (18*R,Z)-12-hydroxy-18-phenyl-4-(trifluoromethyl)-6,9-dihydro-18H-10,17-methanobenzo[b]pyrido[1,2-f][1]oxa[5,6,9]triazacyclotridecine-11,13-dione] | > 0.2 µM | 0.0048 µM |
| O=C1c2c(O)c(=O)ccn2N2CN1C/C=C\COc1c(cccc1C(F)(F)F)[C@@H]2c1ccccc1 (single isomer, unassigned) [Compound 130B, (18*S,Z)-12-hydroxy-18-phenyl-4-(trifluoromethyl)-6,9-dihydro-18H-10,17-methanobenzo[b]pyrido[1,2-f][1]oxa[5,6,9]triazacyclotridecine-11,13-dione] | > 0.2 µM | > 0.1 µM |
| O=C1c2c(O)c(=O)ccn2N2CN1CC[C@@H]1C[C@H]1COc1cccc3c1[C@@H]2c1ccccc1SC3 (single isomer, unassigned) [Compound 131AA, (1*R,13*S,15*R)-7-hydroxy-17-oxa-24-thia-2,3,10-triazaheptacyclo[16.12.1.12,10.03,8.013,15.022,31.025,30]dotriaconta-4,18,20,22(31),25(30),26,28-heptaene-6,9-dione] | > 0.2 µM | 0.0047 µM |
| O=C1c2c(O)c(=O)ccn2N2CN1CCC1C[C@@H]1COc1cccc3c1[C@@H]2c1ccccc1SC3 (single isomer, unassigned) [Compound 131AB, (1*R,13*R,15*S)-7-hydroxy-17-oxa-24-thia-2,3,10-triazaheptacyclo[16.12.1.12,10.03,8.013,15.022,31.025,30]dotriaconta-4,18,20,22(31),25(30),26,28-heptaene-6,9-dione] | > 0.2 µM | 0.017 µM |
| O=C1c2c(O)c(=O)ccn2N2CN1CC[C@@H]1C[C@H]1COc1cccc3c1[C@H]2c1ccccc1SC3 (single isomer, unassigned) [Compound 131BA, (1*S,13*S,15*R)-7-hydroxy-17-oxa-24-thia-2,3,10-triazaheptacyclo[16.12.1.12,10.03,8.013,15.022,31.025,30]dotriaconta-4,18,20,22(31),25(30),26,28-heptaene-6,9-dione] | > 0.2 µM | > 0.1 µM |
| O=C1c2c(O)c(=O)ccn2N2CN1CC[C@H]1C[C@@H]1COc1cccc3c1[C@H]2c1ccccc1SC3 (single isomer, unassigned) [Compound 131BB, (1*S,13*R,15*S)-7-hydroxy-17-oxa-24-thia-2,3,10-triazaheptacyclo[16.12.1.12,10.03,8.013,15.022,31.025,30]dotriaconta-4,18,20,22(31),25(30),26,28-heptaene-6,9-dione] | > 0.2 µM | > 0.1 µM |
| CC(C)[C@@H]1/C=C/COc2ccccc2[C@@H](c2ccccc2)N2CN1C(=O)c1c(O)c(=O)ccn12 (single isomer, unassigned) [Compound 132A, (9*R,18*R,*E)-12-hydroxy-9-isopropyl-18-phenyl-9,10-dihydro-6H,18H-10,17-methanobenzo[b]pyrido[1,2-f][1]oxa[5,6]diazacyclotridecine-11,13-dione] | > 0.2 µM | > 0.1 µM |
| CC(C)[C@H]1/C=C/COc2ccccc2[C@H](c2ccccc2)N2CN1C(=O)c1c(O)c(=O)ccn12 (single isomer, unassigned) [Compound 132B, (9*S,18*S,*E)-12-hydroxy-9-isopropyl-18-phenyl-6,9-dihydro-18H-10,17-methanobenzo[b]pyrido[1,2-f][1]oxa[5,6,9]triazacyclotridecine-11,13-dione] | > 0.2 µM | 0.0093 µM |
| Cc1c(F)ccc2c1OC/C=C\CN1CN([C@@H]2c2ccccc2)n2ccc(=O)c(O)c2C1=O (single isomer, unassigned) [Compound 133A, (18*R,Z)-3-fluoro-12-hydroxy-4-methyl-18-phenyl-6,9-dihydro-18H-10,17-methanobenzo[b]pyrido[1,2-f][1]oxa[5,6,9]triazacyclotridecine-11,13-dione] | > 0.2 µM | 0.0041 µM |
| Cc1c(F)ccc2c1OC/C=C\CN1CN([C@H]2c2ccccc2)n2ccc(=O)c(O)c2C1=O (single isomer, unassigned) [Compound 133B, (18*S,Z)-3-fluoro-12-hydroxy-4-methyl-18-phenyl-6,9-dihydro-18H-10,17-methanobenzo[b]pyrido[1,2-f][1]oxa[5,6,9]triazacyclotridecine-11,13-dione] | > 0.2 µM | > 0.1 µM |
| O=C1c2c(O)c(=O)ccn2N2CN1C/C=C\COc1c(OC(F)(F)F)cccc1[C@H]2c1ccccc1 (single isomer, unassigned) [Compound 134A, (18*R,Z)-12-hydroxy-18-phenyl-4-(trifluoromethoxy)-6,9-dihydro-18H-10,17-methanobenzo[b]pyrido[1,2-f][1]oxa[5,6,9]triazacyclotridecine-11,13-dione] | > 0.2 µM | 0.0693 µM |
| O=C1c2c(O)c(=O)ccn2N2CN1C/C=C\COc1c(OC(F)(F)F)cccc1[C@@H]2c1ccccc1 (single isomer, unassigned) [Compound 134B, (18*S,Z)-12-hydroxy-18-phenyl-4-(trifluoromethoxy)-6,9-dihydro-18H-10,17-methanobenzo[b]pyrido[1,2-f][1]oxa[5,6,9]triazacyclotridecine-11,13-dione] | > 0.2 µM | > 0.1 µM |
| Cc1ccc2c(c1F)OC/C=C\CN1CN([C@@H]2c2ccccc2)n2ccc(=O)c(O)c2C1=O (single isomer, unassigned) [Compound 135A, (18*R,Z)-4-fluoro-12-hydroxy-3-methyl-18-phenyl-6,9-dihydro-18H-10,17-methanobenzo[b]pyrido[1,2-f][1]oxa[5,6,9]triazacyclotridecine-11,13-dione] | > 0.2 µM | 0.0073 µM |
